experiment: Particle size (d50) by laser light diffraction, Malvern Mastersizer 2000; assay type: physicochemical; conditions: unmilled active ingredient
From the text: During step (a) of the method of the invention, the suspension may be recycled if necessary and the process of particle size reduction continued until the desired nanoparticle size of the active ingredient is obtained. The size of the nanoparticles within the nanosuspension is typically measured using well known techniques, such as laser light diffraction methodology using, e.g., a Malvern Mastersizer 2000 particle size analyzer (Malvern Instruments, Westborough Mass.). Particle size measurements are typically described using parameters such as d50, a parameter that represents the size above and below which one finds 50% of the volume of all particles, also known as the volume weighted median. Accordingly, d50 represents a median particle size value. According to the invention, the solution is milled until a d50 ranging preferably from about 1 nm to about 900 nm, more preferably from about 10 nm to about 800 nm, and most preferably from about 50 nm to about 700 nm is achieved.
An oral solid dosage form comprising the active ingredient naproxen and excipients fish gelatin as nanostabilizer (SMW fish gelatin grade from Norland Products Inc.—Example 1A; and DFG grade from Norland Products Inc.—Example 1B) and mannitol as bulking agent was prepared. An aqueous solution of 5% fish gelatin and 3% mannitol was prepared; then naproxen was added to this solution to form a suspension slurry. The suspension slurry was charged into a 600 cc chamber-size Dyno® Mill containing zirconium milling media. Naproxen concentration in the milling slurry was 15% by weight. Milling was performed on recirculating suspension for 1.5 hours using the default milling conditions for this equipment. The resultant bulk nanosuspension was discharged from the mill, and 250 mg unit doses were accurately dispensed into 0.25 mL capacity blister pockets using an IVEK pump controlled using a Digispense unit. Blister pockets were frozen in an Air Products CM2000 freezer using liquid nitrogen as coolant and a 3 minute freezing time, then held in a freezer until transfer to pre-cooled freeze-drier shelves. […]

Row | d50 | Compound
1 | 83 μm | CCOc1ccc(NC(C)=O)cc1 [phenacetin]
2 | 37 μm | COc1ccc2c(c1)c(CC(=O)O)c(C)n2C(=O)c1ccc(Cl)cc1 [indomethacin]
3 | 22 μm | COc1ccc2cc([C@H](C)C(=O)O)ccc2c1 [naproxen]

Reference: patent US9775819B2, “Oral solid dosage form containing nanoparticles and process of formulating the same using fish gelatin” (R.P. SCHERER TECHNOLOGIES, LLC, priority 2009, dated 2017)
